# Bridge positions count the residues as written; N and C are the ends. Square brackets hold non-standard residues; d marks the D form. Ala(benzothiazol-2-yl) = N[C@@H](Cc1nc2ccccc2s1)C(=O)O; Phe(3,4-F2) = N[C@@H](Cc1ccc(F)c(F)c1)C(=O)O; Phe(3-Cl) = N[C@@H](Cc1cccc(Cl)c1)C(=O)O; Phe(4-Cl) = N[C@@H](Cc1ccc(Cl)cc1)C(=O)O; Phe(4-F) = N[C@@H](Cc1ccc(F)cc1)C(=O)O
# What was measured:
# [1] = test system: human liver cancer derived HepG2 cells; assay: Lethal effect of synthetic peptides on HepG2 cells (Trypan blue positive cell count); assay type: cell-based; conditions: 120, 60, 30 or 15 μM, 24 hours; FIGS. 34 to 37
# [2] = test system: human liver cancer HepG2 cells; assay: Granule leakage of HepG2 cells exposed to peptides, under a microscope; assay type: cell-based; conditions: HepG2 cells exposed to peptide
# From the text: The peptides synthesized above were exposed to human liver cancer HepG2 cells and the leakage of granules under a microscope was studied. […] In view of the above, peptides GT-11258, GT-11261, and GT-11274 were expected to have a relatively strong activity.
Substance,HepG2 cell killing effect compared with YS12 (Trypan blue positive cells per 1 mm^2) [1],leakage of granules under a microscope [2]
Ac-SCH(p-chloro-Phe)GPLTWVCK-NH2 (Ac-SCH[Phe(4-Cl)]GPLTWVCK-NH2; disulfide 2-11 (inferred)) [GT-11259],equivalent or greater than that of YS12,relatively low degree of granule leakage
Ac-SCHYGPLTWVCK-NH2 (disulfide 2-11 (inferred)) [GT-11261],equivalent or greater than that of YS12,significant granule leakage
"Ac-SCH(3,4-difluoro-Phe)GPLT(2-quinolylalanine)VCK-NH2 [GT-11304]",equivalent or greater than that of YS12,
Ac-SCHFGPLT(8-quinolylalanine)VCK-NH2 (Ac-SCHFGPLT[8‑quinolylalanine]VCK-NH2; disulfide 2-11 (inferred)) [GT-11274],equivalent or greater than that of YS12,significant granule leakage
Ac-SCH(p-fluoro-Phe)GPLT(2-quinolylalanine)VCK-NH2 [GT-11306],equivalent or greater than that of YS12,
Ac-SCH(p-fluoro-Phe)GPLT(2-benzothiazolylalanine)VCK-NH2 [GT-11307],equivalent or greater than that of YS12,
"Ac-SCH(3,4-difluoro-Phe)GPLT(2-benzothiazolylalanine)VCK-NH2 (Ac-SCH[Phe(3,4-F2)]GPLT[Ala(benzothiazol-2-yl)]VCK-NH2; disulfide 2-11 (inferred)) [GT-11305]",equivalent or greater than that of YS12,
Ac-SCH(m-chloro-Phe)GPLTWVCK-NH2 (Ac-SCH[Phe(3-Cl)]GPLTWVCK-NH2; disulfide 2-11 (inferred)) [GT-11260],equivalent or greater than that of YS12,relatively low degree of granule leakage
Ac-SCHFGPATWVCK-NH2 (disulfide 2-11 (inferred)) [GT-11268],equivalent or greater than that of YS12,
Ac-SCH(p-fluoro-Phe)GPLTWVCK-NH2 (Ac-SCH[Phe(4-F)]GPLTWVCK-NH2; disulfide 2-11 (inferred)) [GT-11258],,significant granule leakage
"Ac-SCH(3,4-difluoro-Phe)GPLT(8-quinolylalanine)VCK-NH2 [GT-11303]",equivalent or greater than that of YS12,
Ac-kcvwtlGGfhcs-NH2 (Ac-[dK][dC][dV][dW][dT][dL]GG[dF][dH][dC][dS]-NH2; disulfide 2-11 (inferred)) [GT-11280],equivalent or greater than that of YS12,

# Source: patent US12024571B2, “Anti-erythropoietin receptor peptide” (Epo-Med Inc., priority 2018, dated 2024)
